System: 192522-019-R-J2-PDC complex tumor spheroid viability
Experiment: Anticancer human tumor 192522-019-R-J2-PDC patient-derived colon adenocarcinoma cell line growth inhibition [POLQ]
Conditions: for IC50: curve of first compound; for viability, T/C: stronger effect = lower value
Summary of the method: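 Three-cell-type spheroids modelling solid tumor plus stroma served as the readout system; POL inhibitors were tested individually and in combination, concentration ranges set by clinical Cmax where known.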

[1] = second compound 0.0316 µM, first compound 0.0316 µM
[2] = second compound 0.0316 µM, first compound 0.1 µM
[3] = second compound 0.0316 µM, first compound 0.316 µM
[4] = second compound 0.0316 µM, first compound 1 µM
[5] = second compound 0.1 µM, first compound 0.0316 µM
[6] = second compound 0.1 µM, first compound 0.1 µM
[7] = second compound 0.1 µM, first compound 0.316 µM
[8] = second compound 0.1 µM, first compound 1 µM
[9] = second compound 0.316 µM, first compound 0.0316 µM
[10] = second compound 0.316 µM, first compound 0.1 µM
[11] = second compound 0.316 µM, first compound 0.316 µM
[12] = second compound 0.316 µM, first compound 1 µM
[13] = second compound 1 µM, first compound 0.0316 µM
[14] = second compound 1 µM, first compound 0.1 µM
[15] = second compound 1 µM, first compound 0.316 µM
[16] = second compound 1 µM, first compound 1 µM
[17] = second compound 3.16 µM, first compound 0.0316 µM
[18] = second compound 3.16 µM, first compound 0.1 µM
[19] = second compound 3.16 µM, first compound 0.316 µM
[20] = second compound 3.16 µM, first compound 1 µM
[21] = second compound 10 µM, first compound 0.0316 µM
[22] = second compound 10 µM, first compound 0.1 µM
[23] = second compound 10 µM, first compound 0.316 µM
[24] = second compound 10 µM, first compound 1 µM
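Also: spheroids exposed to drugs for seven days before reading.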
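For viability, T/C in this document: 100% = DMSO vehicle control viability in luminescence.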

In the case of CC1COCCN1c1cc(C2(S(C)(=N)=O)CC2)nc(-c2ccnc3[nH]ccc23)n1 (centres undefined) + Nc1ccc(C#CCN(C(=O)Cc2ncc(C(F)(F)F)cc2C(F)(F)F)c2ccc(F)cc2)nn1, the IC50 (second compound 0.0316 µM) is reported as 5.87 µM, the IC50 (second compound 0.1 µM) is reported as 6.81 µM and the IC50 (second compound 0.316 µM) is reported as 6 µM. For the same compound, the IC50 (second compound 1 µM) was 7 µM, the IC50 (second compound 3.16 µM) was 6.4 µM and the IC50 (second compound 10 µM) was 7.13 µM. For the same compound, the viability, T/C [1] was 101%, the viability, T/C [2] was 90.6% and the viability, T/C [3] was 102%. For the same compound, the viability, T/C [4] was 93.7%, the viability, T/C (second compound 0.0316 µM, first compound 3.16 µM) was 68% and the viability, T/C (second compound 0.0316 µM, first compound 10 µM) was 34.5%. For the same compound, the viability, T/C [5] was 106%, the viability, T/C [6] was 98.6% and the viability, T/C [7] was 102%. The viability, T/C [8] was 100%, the viability, T/C (second compound 0.1 µM, first compound 3.16 µM) was 69.6% and the viability, T/C (second compound 0.1 µM, first compound 10 µM) was 40.1%. It also gave a viability, T/C [9] of 114%, a viability, T/C [10] of 100% and a viability, T/C [11] of 99.4%. It also gave a viability, T/C [12] of 90%, a viability, T/C (second compound 0.316 µM, first compound 3.16 µM) of 67.9% and a viability, T/C (second compound 0.316 µM, first compound 10 µM) of 35.5%. For the same compound, the viability, T/C [13] was 103%, the viability, T/C [14] was 108% and the viability, T/C [15] was 100%. For the same compound, the viability, T/C [16] was 96%, the viability, T/C (second compound 1 µM, first compound 3.16 µM) was 77% and the viability, T/C (second compound 1 µM, first compound 10 µM) was 37.8%. The viability, T/C [17] was 99.2%, the viability, T/C [18] was 100% and the viability, T/C [19] was 101%. For the same compound, the viability, T/C [20] was 100%, the viability, T/C (second compound 3.16 µM, first compound 3.16 µM) was 68% and the viability, T/C (second compound 3.16 µM, first compound 10 µM) was 38.5%. It also gave a viability, T/C [21] of 102%, a viability, T/C [22] of 101% and a viability, T/C [23] of 102%. The viability, T/C [24] was 105%, the viability, T/C (second compound 10 µM, first compound 3.16 µM) was 72.7% and the viability, T/C (second compound 10 µM, first compound 10 µM) was 40.5%.
C=CCn1c(=O)c2cnc(Nc3ccc(N4CCN(C)CC4)cc3)nc2n1-c1cccc(C(C)(C)O)n1 + Cc1cccc(N(C)C(=O)C2C(O)CCN2c2nc(C)cc(C(F)(F)F)c2C#N)c1 was tested, and the IC50 (second compound 0.0316 µM) was 0.796 µM, the IC50 (second compound 0.1 µM) was 0.812 µM and the IC50 (second compound 0.316 µM) was 0.893 µM. The IC50 (second compound 1 µM) was greater than 1 µM, the IC50 (second compound 3.16 µM) was greater than 1 µM and the IC50 (second compound 10 µM) was 0.916 µM. It also gave a viability, T/C (second compound 0.0316 µM, first compound 0.00316 µM) of 98.9%, a viability, T/C (second compound 0.0316 µM, first compound 0.01 µM) of 106% and a viability, T/C [1] of 102%. It also gave a viability, T/C [2] of 108%, a viability, T/C [3] of 92.6% and a viability, T/C [4] of 39.5%. It also gave a viability, T/C (second compound 0.1 µM, first compound 0.00316 µM) of 99.7%, a viability, T/C (second compound 0.1 µM, first compound 0.01 µM) of 99.3% and a viability, T/C [5] of 102%. It also gave a viability, T/C [6] of 106%, a viability, T/C [7] of 90% and a viability, T/C [8] of 40.4%. The viability, T/C (second compound 0.316 µM, first compound 0.00316 µM) was 111%, the viability, T/C (second compound 0.316 µM, first compound 0.01 µM) was 110% and the viability, T/C [9] was 105%. For the same compound, the viability, T/C [10] was 110%, the viability, T/C [11] was 98.6% and the viability, T/C [12] was 44.4%. For the same compound, the viability, T/C (second compound 1 µM, first compound 0.00316 µM) was 112%, the viability, T/C (second compound 1 µM, first compound 0.01 µM) was 95.2% and the viability, T/C [13] was 107%. The viability, T/C [14] was 109%, the viability, T/C [15] was 105% and the viability, T/C [16] was 50.4%. The viability, T/C (second compound 3.16 µM, first compound 0.00316 µM) was 116%, the viability, T/C (second compound 3.16 µM, first compound 0.01 µM) was 110% and the viability, T/C [17] was 109%. It also gave a viability, T/C [18] of 106%, a viability, T/C [19] of 89% and a viability, T/C [20] of 56.9%. For the same compound, the viability, T/C (second compound 10 µM, first compound 0.00316 µM) was 109%, the viability, T/C (second compound 10 µM, first compound 0.01 µM) was 115% and the viability, T/C [21] was 119%. For the same compound, the viability, T/C [22] was 105%, the viability, T/C [23] was 102% and the viability, T/C [24] was 45.6%.

— PubChem BioAssay AID1963850 (Molecular Pharmacology Branch, DTP, NCI, 2024)
